Data as given in ChEMBL document CHEMBL2074086, “Cloning, in vitro expression, and tissue distribution of a human prostaglandin transporter cDNA(hPGT)” (J Clin Invest, 1996).

Molecular target: Solute carrier organic anion transporter family member 2A1 (Homo sapiens, UniProt Q92959)
Assay: TP_TRANSPORTER: uptake in PGT-expressing HeLa cells
Type: functional, cell-based

| K1/2 [µM] | Activity | SMILES |
| --- | --- | --- |
| 0.082 | – | CCCCC[C@H](O)/C=C/[C@H]1[C@H](O)CC(=O)[C@@H]1CCCCCCC(=O)O [ALPROSTADIL] |
| 0.1 | – | CCCCC[C@H](O)/C=C/[C@H]1[C@H](O)CC(=O)[C@@H]1C/C=C\CCCC(=O)O [DINOPROSTONE] |
| 0.092 | – | CCCCC[C@H](O)/C=C/[C@@H]1[C@@H](C/C=C\CCCC(=O)O)[C@@H](O)C[C@H]1O [DINOPROST] |
| – | is not a substrate [-] | CC#CCC(C)[C@H](O)/C=C/[C@@H]1[C@H]2C/C(=C/CCCC(=O)O)C[C@H]2C[C@H]1O (stereo partly specified) [ILOPROST] |
| 0.083 | – | CCCCC[C@H](O)/C=C/[C@H]1C(=O)C[C@H](O)[C@@H]1C/C=C\CCCC(=O)O [PROSTAGLANDIN D2] |
| 0.182 | – | CCCCC[C@H](O)/C=C/[C@H]1OC(O)C[C@H](O)[C@@H]1C/C=C\CCCC(=O)O (stereo partly specified) [THROMBOXANE B2] |
